The values below come from patent US11110167B2 (priority 2011, dated 2021).

The subject of the assay is human peripheral blood mononuclear cells (PBMC). The assay is classed as cell-based.

Regarding lipopolysaccharide [LPS], the “IL-1α and IL-1β mean gene expression upregulated” value was 4.4 fold; the PPARg gene expression result is “consistently downregulated”.

For the substance “polyinosinic:polycytidylic acid [Poly(I:C)]”, the “IL-1α and IL-1β mean gene expression upregulated” value turned out to be 4.1 fold; the PPARg gene expression result is “consistently downregulated”.
